Patent US4156777A, “Process for producing glucopyranose-nitrosourea compounds and novel compounds included therein” (Tokyo Tanabe Company, Limited, priority 1977, dated 1979)
Values after ≈ are worked out from the molar mass of the structure shown.

Assays:
Sarcina lutea ATCC 9341 = assay: Antibacterial activity, broth-dilution method; type: cell-based; conditions: Micrococcus luteus, ATCC9341
Text: (§1) Using 6DCNU and 6MCαG, minimum inhibiting concentrations (referred to as "MIC") for various kinds of bacteria were estimated by means of the broth-dilution method.

Shigella sonnei = assay: Antibacterial activity, broth-dilution method; type: cell-based
Text: as §1

[1] = test system: Escherichia coli NIHJ JC-2; assay: Antibacterial activity, broth-dilution method; type: cell-based; conditions: NIHJJC2
Text: as §1

[2] = test system: Klebsiella pneumoniae IFM 3008; assay: Antibacterial activity, broth-dilution method; type: cell-based; conditions: IFM3008
Text: as §1

[3] = test system: Mycobacterium smegmatis ATCC 607; assay: Antibacterial activity, broth-dilution method; type: cell-based; conditions: Mycolicibacterium smegmatis, ATCC607
Text: as §1

[4] = test system: Proteus vulgaris AHU 1469; assay: Antibacterial activity, broth-dilution method; type: cell-based; conditions: AHU1469
Text: as §1

[5] = test system: Streptococcus faecalis AHU 1085; assay: Antibacterial activity, broth-dilution method; type: cell-based; conditions: Enterococcus faecalis, AHU1085
Text: as §1

[6] = test system: Staphylococcus aureus FDA 209P JC-1; assay: Antibacterial activity, broth-dilution method; type: cell-based; conditions: FDA209P
Text: as §1

[7] = test system: Bacillus subtilis ATCC 6633; assay: Antibacterial activity, broth-dilution method; type: cell-based; conditions: ATCC6633
Text: as §1

[8] = test system: Pseudomonas aeruginosa IFO 3080; assay: Antibacterial activity, broth-dilution method; type: cell-based; conditions: IFO3080
Text: as §1

leukemia L-1210 = assay: Antitumor activity against leukemia L-1210 implanted in BDF1 mice (ILS, 60 days survivors); type: in vivo
Text: Test compounds were given to BDF1 mice 24 hrs after implantation of 10^6 cells of leukemia L-1210 in each animal, through single intraperitoneal administration, intraperitoneal administration for 5 successive days, single oral administration or oral administration for 5 successive days, whereupon the increase in life span (referred to as "ILS") and number of 60 days survivors of test animals were estimated, said test of antitumor activity being that according to the method of the National Cancer Center, Tokyo [A. Hoshi et al: Farmashia, 9 (1973), 464]. In the tests, the compounds were dissolved in physiological saline solution just before administration.
^a i.p.: intraperitoneal administration p.o: oral administration
D1 : single administration D1~5 : administration for 5
^b percentage calculated from mean survival time over control
^c survivors/six animals

[9] = Absorption and excretion of 14C-labelled compounds; type: in vivo, rats
Protocol: The carbon atom at the 2-position of the chloroethyl group (i.e. ClCH2 CH2 -) of 6DCNU and 6MCαG was labelled with radioactive ^14 C, and the absorption and excretion of these compounds were tested using rats.

[10] = Solubility in water at 25° C.; type: physicochemical
Acute toxicity (LD50) = type: in vivo, male Wister rats; conditions: for LD50 at 168 h: rat, in vivo, after 1 week
Protocol: Test compounds were dissolved in physiological saline solution just before their dosage and administered to male Wister rats, intraperitoneally, intravenously and orally. After 1 week, the LD50 of each compound was calculated from the mortality of the test animals by the Lichfield-Wilcoxon Method.
i.v.: intravenous administration

[11] = Diabetogenic activity (blood glucose concentration after intravenous administration); type: in vivo, male Wister rats
Protocol: 40-96 mg/kg of the test compounds were administered intravenously to starved male Wister rats weighing 240-260 g each, and the blood glucose concentrations of the test animals were estimated by the glucose exidase method [L. L. Saloman et al: Anal. Chem., 31 (1959), 453], in which test the compounds were dissolved in physiological saline solution just before administration. […]

Compound: O=NN(CCCl)C(=O)NC[C@H]1OC(O)[C@H](O)[C@@H](O)[C@@H]1O (stereo partly drawn) [Example 6DCNU, 3-(D-glucopyranos-6-yl)-1-(2-chloroethyl)-1-nitrosourea]
- MIC (Sarcina lutea ATCC 9341): > 200 µg/mL
- MIC (Shigella sonnei): > 200 µg/mL
- MIC [1]: > 200 µg/mL
- MIC [2]: > 200 µg/mL
- MIC [3]: > 200 µg/mL
- MIC [4]: > 200 µg/mL
- MIC [5]: > 200 µg/mL
- MIC [6]: > 200 µg/mL
- MIC [7]: > 200 µg/mL
- MIC [8]: > 200 µg/mL
- ILS (leukemia L-1210; 3.2 mg/kg/day, i.p. D1~5): > 310%
- Survivors (60 days) (leukemia L-1210; 3.2 mg/kg/day, i.p. D1~5): 2/6
- ILS (leukemia L-1210; 6.3 mg/kg/day, i.p. D1~5): > 410%
- Survivors (60 days) (leukemia L-1210; 6.3 mg/kg/day, i.p. D1~5): 4/6
- ILS (leukemia L-1210; 12.5 mg/kg/day, i.p. D1): > 426%
- Survivors (60 days) (leukemia L-1210; 12.5 mg/kg/day, i.p. D1): 4/6
- ILS (leukemia L-1210; 12.5 mg/kg/day, i.p. D1~5): > 520%
- Survivors (60 days) (leukemia L-1210; 12.5 mg/kg/day, i.p. D1~5): 5/6
- ILS (leukemia L-1210; 12.5 mg/kg/day, p.o. D1~5): > 123%
- ILS (leukemia L-1210; 15.0 mg/kg/day, i.p. D1~5): > 650%
- Survivors (60 days) (leukemia L-1210; 15.0 mg/kg/day, i.p. D1~5): 6/6
- ILS (leukemia L-1210; 20.0 mg/kg/day, i.p. D1~5): > 670%
- Survivors (60 days) (leukemia L-1210; 20.0 mg/kg/day, i.p. D1~5): 6/6
- ILS (leukemia L-1210; 25.0 mg/kg/day, i.p. D1): > 561%
- Survivors (60 days) (leukemia L-1210; 25.0 mg/kg/day, i.p. D1): 5/6
- ILS (leukemia L-1210; 25.0 mg/kg/day, i.p. D1~5): > 540%
- Survivors (60 days) (leukemia L-1210; 25.0 mg/kg/day, i.p. D1~5): 5/6
- ILS (leukemia L-1210; 25.0 mg/kg/day, p.o. D1~5): > 260%
- Survivors (60 days) (leukemia L-1210; 25.0 mg/kg/day, p.o. D1~5): 2/6
- ILS (leukemia L-1210; 30.0 mg/kg/day, i.p. D1~5): > 315%
- Survivors (60 days) (leukemia L-1210; 30.0 mg/kg/day, i.p. D1~5): 3/6
- ILS (leukemia L-1210; 35.0 mg/kg/day, p.o. D1~5): > 390%
- Survivors (60 days) (leukemia L-1210; 35.0 mg/kg/day, p.o. D1~5): 3/6
- ILS (leukemia L-1210; 40.0 mg/kg/day, i.p. D1~5): > 225%
- Survivors (60 days) (leukemia L-1210; 40.0 mg/kg/day, i.p. D1~5): 2/6
- ILS (leukemia L-1210; 50.0 mg/kg/day, i.p. D1): > 606%
- Survivors (60 days) (leukemia L-1210; 50.0 mg/kg/day, i.p. D1): 5/6
- ILS (leukemia L-1210; 50.0 mg/kg/day, p.o. D1~5): > 442%
- Survivors (60 days) (leukemia L-1210; 50.0 mg/kg/day, p.o. D1~5): 3/6
- ILS (leukemia L-1210; 70.0 mg/kg/day, i.p. D1): > 321%
- Survivors (60 days) (leukemia L-1210; 70.0 mg/kg/day, i.p. D1): 3/6
- ILS (leukemia L-1210; 70.0 mg/kg/day, p.o. D1~5): > 370%
- Survivors (60 days) (leukemia L-1210; 70.0 mg/kg/day, p.o. D1~5): 3/6
- ILS (leukemia L-1210; 100.0 mg/kg/day, i.p. D1): -3%
- ILS (leukemia L-1210; 100.0 mg/kg/day, p.o. D1~5): > 246%
- Survivors (60 days) (leukemia L-1210; 100.0 mg/kg/day, p.o. D1~5): 2/6
- ILS (leukemia L-1210; 150.0 mg/kg/day, i.p. D1): -10%
- ILS (leukemia L-1210; 200.0 mg/kg/day, i.p. D1): -34%
- antitumor activity, comparison in words (leukemia L-1210; L-1210, BDF1 mice): superior to that of DCNU, GANU and 2MCαG, and is almost equal to that of 6MCαG
- antitumor activity, in words (leukemia L-1210; mouse, in vivo): excellent antitumor activity
- antitumor activity in oral administration, in words (leukemia L-1210; oral administration): high activity equal to that of 6MCαG in oral administration
- absorption, in words ([9]; rats, 14C-labelled): absorbed well
- excretion rate, intravenous versus oral administration, in words ([9]; rats, 14C-labelled): almost the same excretion rates
- main route of excretion, in words ([9]; rats, 14C-labelled): excreted mainly in the urine
- excretion in faeces, comparison in words ([9]; versus 6MCαG): excreted more than 6MCαG in faeces
- excretion velocity, comparison in words ([9]; versus 6MCαG): more rapid than that of 6MCαG
- toxicity inferred from excretion, in words ([9]; versus 6MCαG): less toxic than 6MCαG
- solubility ([10]; amount soluble in 1 ml water at 25° C.): 750 mg/mL (≈ 2390 mM)
- solubility in water, comparison in words ([10]; water, 25° C.): higher than that of both DCNU and 2MCαG and is almost equal to that of 6MCαG
- LD50 at 168 h (Acute toxicity (LD50); ip): 90 mg/kg
- LD50 at 168 h (Acute toxicity (LD50); iv): 85 mg/kg
- LD50 at 168 h (Acute toxicity (LD50); po): 132 mg/kg
- LD50, comparison in words (Acute toxicity (LD50); rats): higher than that of the other known compounds
- Blood Glucose Concentration ([11]; 40 mg/kg i.v., 0 hr after treatment): 70.4 mg/dL
- Blood Glucose Concentration ([11]; 40 mg/kg i.v., 2 hr after treatment): 73.3 mg/dL
- Blood Glucose Concentration ([11]; 40 mg/kg i.v., 4 hr after treatment): 67.7 mg/dL
- Blood Glucose Concentration ([11]; 40 mg/kg i.v., 7 hr after treatment): 68.2 mg/dL
- Blood Glucose Concentration ([11]; 40 mg/kg i.v., 10 hr after treatment): 68.3 mg/dL
- Blood Glucose Concentration ([11]; 40 mg/kg i.v., 24 hr after treatment): 69.9 mg/dL
- Blood Glucose Concentration ([11]; 40 mg/kg i.v., 48 hr after treatment): 73.8 mg/dL
- Blood Glucose Concentration ([11]; 60 mg/kg i.v., 0 hr after treatment): 72.0 mg/dL
- Blood Glucose Concentration ([11]; 60 mg/kg i.v., 2 hr after treatment): 74.2 mg/dL
- Blood Glucose Concentration ([11]; 60 mg/kg i.v., 4 hr after treatment): 78.3 mg/dL
- Blood Glucose Concentration ([11]; 60 mg/kg i.v., 7 hr after treatment): 76.8 mg/dL
- Blood Glucose Concentration ([11]; 60 mg/kg i.v., 10 hr after treatment): 79.2 mg/dL
- Blood Glucose Concentration ([11]; 60 mg/kg i.v., 24 hr after treatment): 78.7 mg/dL
- Blood Glucose Concentration ([11]; 60 mg/kg i.v., 48 hr after treatment): 79.4 mg/dL
- Blood Glucose Concentration ([11]; 77 mg/kg i.v., 0 hr after treatment): 72.4 mg/dL
- Blood Glucose Concentration ([11]; 77 mg/kg i.v., 2 hr after treatment): 75.3 mg/dL
- Blood Glucose Concentration ([11]; 77 mg/kg i.v., 4 hr after treatment): 75.8 mg/dL
- Blood Glucose Concentration ([11]; 77 mg/kg i.v., 7 hr after treatment): 79.8 mg/dL
- Blood Glucose Concentration ([11]; 77 mg/kg i.v., 10 hr after treatment): 76.2 mg/dL
- Blood Glucose Concentration ([11]; 77 mg/kg i.v., 24 hr after treatment): 78.2 mg/dL
- Blood Glucose Concentration ([11]; 77 mg/kg i.v., 48 hr after treatment): 80.5 mg/dL
- blood glucose concentrations versus control, in words ([11]; i.v., rats): substantially the same blood glucose concentrations as that in the control
- diabetogenic activity, in words ([11]; rat, in vivo): low diabetogenic activity
